Assay results reported in publication PMC9738591, “N-[1,3-Dialkyl(aryl)-2-oxoimidazolidin-4-ylidene]-aryl(alkyl)sulphonamides as Novel Selective Human Cannabinoid Type 2 Receptor (hCB2R) Ligands; Insights into the Mechanism of Receptor Activation/Deactivation” (Molecules, 2022).

How the values were obtained:
human recombinant CB1R = target: T1, human recombinant CB1R (Homo sapiens, UniProt P21554); assay: Competition binding assay, displacement of [3H]-CP-55,940 from membranes of HEK-293 cells overexpressing CB1R
T1 construct: purchased Perkin-Elmer, Italy; host or cells: HEK-293 cells (membranes)
Description: (§1) The binding affinities (Ki values) of the compounds for human recombinant hCB1R and hCB2R were determined as previously described, using SR144528 as a reference compound [30], and are reported in Table 1.
(§2) Compound affinity for CB1R and CB2R was measured as previously reported. […] Competition curves were performed by displacing [^3H]-CP-55 940 with increasing concentrations of compounds (0.1 nM–10 or 25 μM). […] All compounds were tested following the procedure described by the manufacturer (Perkin-Elmer, Italy). Displacement curves were generated by incubating drugs with [^3H]-CP-55 940 for 90 min at 30 °C. Ki values were calculated by applying the Cheng−Prusoff equation to the IC50 values for the displacement of the bound radioligand by increasing concentrations of the test compound. Data represent the mean values of three independent experiments performed in duplicate and are expressed as the average of Ki (µM) ± standard deviation. Data were analyzed using PRISM.9.3 software (GraphPad Software Inc, San Diego, CA, USA).

human CB2R [1] = target: T2, human CB2R (Homo sapiens, UniProt P34972); assay: cAMP Hunter assay in the presence of JWH-133 agonist challenge (antagonist mode); assay type: cell-based; conditions: JWH-133 4 µM (EC80) agonist challenge
Description: (§3) Only a small displacement was observed and only at the highest concentration (Figure 8). We reasoned that the discrepancy with the predictions was mainly due to the chemical–physical features of the molecule and that the lack of antagonism was caused by issues related to compound solubility in the buffer used for the assay. Indeed, the maximum concentration of 12b that could be reached in the buffer solution used for the functional assay, measured by UV absorption as well as by HPLC, was 2.3 µM.

human CB2R [2] = target: T2, human CB2R; assay: Competition binding assay, displacement of [3H]-CP-55,940 from membranes of HEK-293 cells overexpressing CB2R; set-up: purchased Perkin-Elmer, Italy; host or cells: HEK-293 cells (membranes)
Description: as §1, §2

human CB2R [3] = target: T2, human CB2R; assay: cAMP Hunter assay, effect on NKH-477-induced cAMP levels (agonist mode); assay type: cell-based; conditions: CHO-K1 cells overexpressing human CB2R, compound alone
Description: The above-mentioned compounds were tested for their functional activity.
Gi-coupled cAMP modulation was measured following the manufacturer’s protocol (Eurofins, Fremont, CA, USA), as previously reported. Briefly, CHO-K1 cells overexpressing the human CB2R were plated into a 96-well plate (10,000 cells/well) and incubated overnight at 37 °C, 5% CO2. Media was aspirated and replaced with 30 μL of assay buffer. Cells were incubated for 30 min at 37 °C with 15 μL of 3× dose−response solutions of samples prepared in the presence of a cell assay buffer containing 3× of 25 μM NKH-477 solution to stimulate adenylate cyclase and enhance basal cAMP levels. For those compounds not showing a decrease in cAMP levels, the effect upon receptor activation in the presence of the JWH-133 selective agonist was investigated. Cells were pre-incubated with samples (15 min at 37 °C at 6× the final desired concentration), followed by 30 min incubation with the JWH-133 agonist challenge at the EC80 concentration (EC80 = 4 μM, previously determined in separate experiments) in the presence of NKH-477 to stimulate adenylate cyclase and enhance cAMP levels. Cell lysis and cAMP detection were performed as per the manufacturer’s protocol. Luminescence measurements were performed using a GloMax Multi Detection System (Promega, Italy). Data are reported as the means ± SEM of three independent experiments conducted in triplicate and were normalized considering the NKH-477 stimulus alone as 100% of the response. Data were analyzed using PRISM.9.3 software (GraphPad Software Inc, San Diego, CA, USA).
Figure 7 Concentration-response curves of compounds in the cAMP Hunter assay. Curves show the effect of increasing concentrations of compounds on NKH-477-induced cAMP levels in stable CHO cells expressing the human CB2. Data are reported as the means ± SEM of three independent experiments conducted in triplicate, normalized to the maximal and minimal responses.

[4] = Maximum concentration reached in the functional assay buffer, by UV absorption and HPLC; assay type: physicochemical; conditions: measured by UV absorption and HPLC
Description: as §3

T2 sequence (P34972 whole entry): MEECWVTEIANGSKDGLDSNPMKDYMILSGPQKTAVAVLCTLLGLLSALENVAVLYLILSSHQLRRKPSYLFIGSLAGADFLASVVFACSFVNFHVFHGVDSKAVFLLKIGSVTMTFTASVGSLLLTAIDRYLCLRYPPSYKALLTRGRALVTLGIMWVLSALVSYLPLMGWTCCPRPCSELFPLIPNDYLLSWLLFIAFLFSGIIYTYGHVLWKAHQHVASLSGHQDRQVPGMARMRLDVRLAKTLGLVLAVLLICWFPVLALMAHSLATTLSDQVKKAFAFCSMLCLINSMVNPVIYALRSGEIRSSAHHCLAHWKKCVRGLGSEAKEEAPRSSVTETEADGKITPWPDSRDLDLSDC
T1 sequence (P21554 whole entry): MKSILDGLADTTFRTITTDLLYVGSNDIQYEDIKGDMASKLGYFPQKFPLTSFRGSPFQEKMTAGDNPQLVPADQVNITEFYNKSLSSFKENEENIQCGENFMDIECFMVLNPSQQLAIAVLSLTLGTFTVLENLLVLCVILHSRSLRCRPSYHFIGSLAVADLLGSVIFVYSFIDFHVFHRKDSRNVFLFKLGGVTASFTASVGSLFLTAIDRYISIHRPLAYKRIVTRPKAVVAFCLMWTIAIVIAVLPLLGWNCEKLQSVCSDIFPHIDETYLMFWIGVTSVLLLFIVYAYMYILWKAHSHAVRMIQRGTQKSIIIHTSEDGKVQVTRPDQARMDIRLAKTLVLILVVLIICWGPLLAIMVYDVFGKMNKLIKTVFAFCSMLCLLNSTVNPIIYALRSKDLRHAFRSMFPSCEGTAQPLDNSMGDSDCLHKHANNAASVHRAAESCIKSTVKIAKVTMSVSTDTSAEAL

Question: For `O=C1N(CC2CC2)C(=NS(=O)(=O)c2ccccc2)CN1C12CC3CC(CC(C3)C1)C2` [Compound 12b, N-[1-Adamant-1-yl-3-cyclopropylmethyl-2-oxoimidazolidin-4-ylidene]benzenesulfonamide], which melting point is on record?
Answer: 198 to 198.5 °C

Question: What about the Ki (human recombinant CB1R; [3H]-CP-55,940 displacement, HEK-293 membranes, 90 min at 30 °C, Cheng-Prusoff, read-out: Ki hCB1R (µM ± S.E.)) of the same compound?
Answer: > 10 µM

Question: What about the inhibition at 25 µM (human recombinant CB1R; read-out: % Displacement/ Max. Conc. Tested, hCB1R) of the same compound?
Answer: 29.5%

Question: And the “Antagonism of JWH-133-induced inhibition of NKH-477-induced cAMP formation” value (human CB2R [1])?
Answer: did not antagonize the agonist challenge

Question: What about the Ki (human CB2R [2]; [3H]-CP-55,940 displacement, HEK-293 membranes, 90 min at 30 °C, Cheng-Prusoff, read-out: Ki hCB2R (µM ± S.E.)) of the same compound?
Answer: 0.26 ± 0.03 µM

Question: What about the inhibition at 25 µM (human CB2R [2]; max conc. tested 25 µM, read-out: % Displacement/ Max Conc. Tested, hCB2R (converted)) of the same compound?
Answer: 84.5%

Question: And the “Effect on NKH-477-induced cAMP levels (functional behavior)” value (human CB2R [3])?
Answer: did not alter the level of cAMP

Question: And the “Maximum concentration that could be reached in the buffer solution used for the functional assay” value [4]?
Answer: 2.3 µM
